Results published in ChEMBL document CHEMBL1201862, “PubChem BioAssay data set” (2004).
Activity calls are given as the source filed them.

Assays:
[1] = target: Heat shock protein HSP 90-alpha (Homo sapiens, UniProt P07900); assay type: functional, organism-based
[2] = target: T1, Rac GTPase-activating protein 1 (Homo sapiens, UniProt Q9H0H5); test: blockers of MgcRacGAP-driven Rac1 GTP hydrolysis – biochemical, ADP Hunter fluorescence, primary and confirmatory, confirmation (AID 624330); assay type: functional
T1 sequence (Q9H0H5 whole entry): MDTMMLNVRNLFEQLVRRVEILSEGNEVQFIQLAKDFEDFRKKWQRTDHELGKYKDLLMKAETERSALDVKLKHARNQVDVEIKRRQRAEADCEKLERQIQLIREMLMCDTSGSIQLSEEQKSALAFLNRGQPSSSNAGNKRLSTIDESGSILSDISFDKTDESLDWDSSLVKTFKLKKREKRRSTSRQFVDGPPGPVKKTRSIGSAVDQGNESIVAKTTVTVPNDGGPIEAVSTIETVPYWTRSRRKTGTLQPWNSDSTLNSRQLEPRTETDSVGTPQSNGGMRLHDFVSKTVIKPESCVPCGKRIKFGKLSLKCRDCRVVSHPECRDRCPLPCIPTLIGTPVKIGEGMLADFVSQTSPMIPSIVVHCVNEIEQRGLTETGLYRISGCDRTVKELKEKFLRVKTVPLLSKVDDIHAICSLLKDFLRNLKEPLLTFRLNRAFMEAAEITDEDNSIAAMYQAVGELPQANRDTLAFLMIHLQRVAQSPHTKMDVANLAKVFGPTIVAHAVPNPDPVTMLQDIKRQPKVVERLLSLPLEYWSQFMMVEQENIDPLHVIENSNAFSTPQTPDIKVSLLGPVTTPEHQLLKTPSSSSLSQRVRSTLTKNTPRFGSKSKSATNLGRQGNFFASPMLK

INS1 = test: INS-1E survival protection against cytokine death – cell-based, luminescence, retest, dose response (AID 449756); assay type: functional; conditions: Rattus norvegicus;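 note: cell death triggered by IL-1 beta plus TNF-alpha plus IFN-gamma mixture; protective hits raise ATP signal compared with cytokine alone wells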
[3] = Luminescence Cell-Based Dose Response HTS to Identify Inhibitors of 5'UTR Stem-Loop Driven Prion Protein mRNA Translation in H4 Neuroglioblastoma Cells. [Related pubchem assays: 1827 (Project Summary), 1813 (Primary HTS)]; assay type: functional
[4] = luciferase reporter signal suppression in cells – H4 neuroglioma cells, luminescence, dose response (AID 1990); assay type: functional, cell-based
[5] = alpha-synuclein stem-loop luciferase translation blockers – H4 neuroglioma cells, luminescence, confirmation (AID 1988); assay type: functional, cell-based
[6] = NIH-3T3 fibroblast cytotoxicity, dose response, cytotoxicity control, cell-based, fluorescence, Alamar Blue, secondary assay (AID 2327); assay type: functional;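 note: NIH-3T3 mouse fibroblasts cultured with fluconazole at 8 µg/mL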
[7] = fluconazole-exposed Candida albicans growth modulators – fluorescence, retest, confirmation (AID 2467); assay type: functional, cell-based
[8] = target: T2, Microphthalmia-associated transcription factor (Homo sapiens, UniProt O75030); test: reducers of TRPM1 reporter luminescence, concentration series – cell-based, SK-MEL-5, cherry-picked, set 3, MITF inhibitor project, dose response (AID 493073); assay type: functional;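 note: SK-MEL-5 melanoma cells with luciferase driven by the MITF target TRPM1 promoter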
T2 sequence (O75030 whole entry): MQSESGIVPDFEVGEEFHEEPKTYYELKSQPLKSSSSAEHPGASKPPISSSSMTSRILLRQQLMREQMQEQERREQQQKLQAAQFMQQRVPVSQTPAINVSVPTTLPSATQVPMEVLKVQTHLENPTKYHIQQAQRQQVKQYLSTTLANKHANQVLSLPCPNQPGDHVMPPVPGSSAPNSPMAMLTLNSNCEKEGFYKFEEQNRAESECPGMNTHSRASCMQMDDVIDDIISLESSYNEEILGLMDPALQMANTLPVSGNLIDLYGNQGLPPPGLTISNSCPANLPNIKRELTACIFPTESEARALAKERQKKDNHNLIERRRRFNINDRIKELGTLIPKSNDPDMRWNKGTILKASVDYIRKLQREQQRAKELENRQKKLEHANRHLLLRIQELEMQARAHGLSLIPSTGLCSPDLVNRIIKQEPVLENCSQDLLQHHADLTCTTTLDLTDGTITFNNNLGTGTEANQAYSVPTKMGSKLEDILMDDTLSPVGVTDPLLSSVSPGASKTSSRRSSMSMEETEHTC

HEK293 = test: EBV LMP1 TES2 canonical NF-kB signalling blockers – cell-based, HEK293, luciferase, cherry-pick, dose response (AID 588343); assay type: functional; conditions: Homo sapiens
[9] = NIH3T3 cell viability loss – ATP luminescence, mouse fibroblasts, counter-screen, dose response (AID 2010); assay type: functional, cell-based;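 note: cells exposed to compound for about 90 hours before reading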
[10] = Trypanosoma cruzi growth suppression in host cells – NIH3T3 host cells, beta-gal luminescence, confirmation (AID 2044); assay type: functional, cell-based;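 note: intracellular parasites grown in NIH/3T3 mouse fibroblasts as host cells; luminescent beta-galactosidase reporter signal from transgenic T. cruzi replicating inside host cells; inhibitors lower the luminescence signal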
H4 = test: Luminescence Cell-Based Dose Response HTS to Identify Activators of 5'UTR Stem-Loop Driven Prion Protein mRNA Translation in H4 Neuroglioblastoma Cells. [Related pubchem assays: 1829 (Project Summary), 1814 (Primary HTS)]; assay type: functional; conditions: Homo sapiens
[11] = Luminescence Cell-Based Dose Response HTS to Identify Activators of Luciferase Translation or Activity in H4 […] Cells. [Related pubchem assays: 1829 (Project Summary), 1814 (Primary HTS)]; assay type: functional
[12] = Luminescence Cell-Based Dose Confirmation HTS to Identify Activators of 5'UTR Stem-Loop Driven Alpha-Synuclein mRNA Translation in H4 Neuroglioblastoma Cells. [Related pubchem assays: 1829 (Project Summary), 1814 (Primary HTS)]; assay type: functional
[13] = target: T3, Ubiquitin-conjugating enzyme E2 N (Homo sapiens, UniProt P61088); assay type: functional;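 note: Dose-response confirmation in a TR-FRET assay detecting UBC13-driven polyubiquitin chain formation, inhibition measured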
T3 sequence (P61088 whole entry): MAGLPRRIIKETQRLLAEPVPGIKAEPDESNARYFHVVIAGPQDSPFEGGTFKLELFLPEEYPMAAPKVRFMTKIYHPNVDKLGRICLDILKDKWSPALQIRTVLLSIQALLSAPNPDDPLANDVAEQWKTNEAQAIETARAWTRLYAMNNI

Streptokinase A = target: T4, Streptokinase A (Streptococcus pyogenes serotype M1, UniProt P10520); test: viability-normalized secreted streptokinase activity reduction – plasminogen activation absorbance, OD405, dose response (AID 1914); assay type: functional, Streptococcus pyogenes M1 GAS;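 note: secreted streptokinase activity via plasminogen activation per viability signal from cell pellet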
T4 sequence (P10520 whole entry): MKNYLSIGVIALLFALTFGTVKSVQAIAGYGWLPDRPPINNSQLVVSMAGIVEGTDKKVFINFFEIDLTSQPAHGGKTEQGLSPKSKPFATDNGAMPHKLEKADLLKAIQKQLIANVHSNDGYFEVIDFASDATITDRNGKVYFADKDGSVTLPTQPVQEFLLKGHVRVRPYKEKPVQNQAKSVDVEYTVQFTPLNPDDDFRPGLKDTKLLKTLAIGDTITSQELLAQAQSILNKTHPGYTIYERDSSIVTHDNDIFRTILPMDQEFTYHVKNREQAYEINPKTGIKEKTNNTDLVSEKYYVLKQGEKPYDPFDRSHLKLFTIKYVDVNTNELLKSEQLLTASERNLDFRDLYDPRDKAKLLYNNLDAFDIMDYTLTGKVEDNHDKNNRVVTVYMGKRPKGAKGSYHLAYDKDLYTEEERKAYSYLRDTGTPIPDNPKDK

Streptococcus = test: GAS UMAA2166 growth inhibition – luminescence, BacTiterGlo, counter-screen for streptokinase expression inhibitor project, dose response (AID 1915); assay type: functional, organism-based;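 note: potency for reduction of bacterial viability or growth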
[14] = test system: Streptococcus sp. 'group A'; test: Streptococcus pyogenes SK(-)GAS viability under kanamycin – luminescence, BacTiterGlo, confirmation, counter-screen for streptokinase expression inhibitor project, dose response (AID 1900); assay type: functional, organism-based
cells = assay type: functional
[15] = THP-1 cell cytotoxicity, dose response, cytotoxicity control for non-replicating M. tuberculosis project (AID 489025); assay type: functional
Cytochrome P450 3A4 = Cytochrome P450 3A4 (Homo sapiens, UniProt P08684);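 note: CYP3A4 tested as one member of a cytochrome P450 panel screen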
Sequence of Cytochrome P450 3A4 (P08684 whole entry): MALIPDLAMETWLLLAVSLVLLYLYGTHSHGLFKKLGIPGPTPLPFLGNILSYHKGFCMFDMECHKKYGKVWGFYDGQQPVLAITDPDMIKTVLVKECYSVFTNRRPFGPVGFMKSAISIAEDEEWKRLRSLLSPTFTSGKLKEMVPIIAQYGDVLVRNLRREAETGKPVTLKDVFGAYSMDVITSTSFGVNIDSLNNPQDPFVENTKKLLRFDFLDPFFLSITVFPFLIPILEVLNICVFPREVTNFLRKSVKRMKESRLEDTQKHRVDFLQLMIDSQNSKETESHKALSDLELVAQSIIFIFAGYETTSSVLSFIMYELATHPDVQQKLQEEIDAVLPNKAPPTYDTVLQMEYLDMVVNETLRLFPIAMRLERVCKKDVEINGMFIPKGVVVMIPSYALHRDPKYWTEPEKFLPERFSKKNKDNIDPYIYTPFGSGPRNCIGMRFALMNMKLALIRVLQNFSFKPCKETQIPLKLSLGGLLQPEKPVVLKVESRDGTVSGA

Cc1c(OCC(=O)C(C)(C)C)ccc2c(-c3ccccc3)cc(=O)oc12
AC50 [1]: 7.83 µM (active)

COc1cc(/C=C/C(=O)OCC(=O)N(C)Cc2ccccc2)ccc1O
IC50 [2]: 35.2 µM (active)

COc1ccc2c(c1)[C@H]1[C@H](CO2)[C@H](c2ccccc2)[C@]2(C)C(=O)Nc3ccc(C)cc3C(=O)N12
AC50 [1]: 6.38 µM (active)

COc1ccc(C(=O)N/N=C/c2sc3ccccc3c2O)cc1
AC50 (INS1): 1.8 µM (active) | EC50 [3]: 11 µM (active) | EC50 [4]: 12.7 µM (active) | EC50 [5]: 10.2 µM (active) | AC50 [1]: 2.68 µM (active)

CC1(C(=O)N/N=C/c2ccc([N+](=O)[O-])o2)CC1(Br)Br (stereo not drawn)
EC50 [6]: > 150 µM (inactive) | EC50 [7]: 2.46 µM (active) | AC50 [8]: 10.3 µM (active)

COc1ccccc1-c1sc2ccccc2c1-c1ccc(O)cc1
AC50 [1]: 5.22 µM (active)

CC1(c2nnc(Cc3ccccc3)o2)CC(c2ccccc2[N+](=O)[O-])=NO1 (stereo not drawn)
AC50 [1]: 1.59 µM (active)

COc1ccc(-c2cc(C(=O)N3CCN(c4ccccc4F)CC3)c3ccccc3n2)c(OC)c1
AC50 [1]: 5.77 µM (active)

O=C(O)c1ccc(C(=O)Nc2ccc(F)cc2)cc1
AC50 [8]: 19.8 µM (active)

O=[N+]([O-])c1cccc(-c2ccc(/C=N/Nc3nc(N4CCCCC4)nc(N4CCCCC4)n3)o2)c1
AC50 (HEK293): 96.7 µM (active)

Cc1ccc(-c2cs/c(=N\c3cccnc3)n2CCCn2ccnc2)cc1C
EC50 [9]: > 60 µM (not active) | AC50 (HEK293): 6.59 µM (active) | EC50 [10]: 0.118 µM (active)

COc1ccc2cc(OCC(=O)NNC(=O)Nc3ccc(C(C)=O)cc3)ccc2c1
EC50 (H4): 20.3 µM (active) | EC50 [11]: 33.4 µM (active) | EC50 [12]: 12.4 µM (active) | IC50 [2]: 239 µM (active)

O=C(NCCCCc1ccccc1)c1ccc(Br)cc1
AC50 [1]: 3.65 µM (active)

COc1ccc(CN2CCN(Cc3ccc(C(F)(F)F)cc3)CC2)cc1
IC50 [2]: 99.6 µM (active)

COc1cc2nc(=S)[nH]c(Nc3ccc(NC(C)=O)cc3)c2cc1OC
IC50 [2]: 306 µM (active) | IC50 [13]: > 20 µM (inactive)

Cc1ccc(CCNc2ccc3ccccc3c2)cn1
IC50 [2]: 105 µM (active)

CC(C(=O)Nc1ccc(F)c(F)c1)N1CCN(C)CC1 (stereo not drawn)
IC50 [2]: 83.1 µM (active)

O=C(Nc1ccc(N2CCOCC2)cc1)c1cnsn1
EC50 [3]: 5.28 µM (active) | EC50 [4]: 3.19 µM (active) | EC50 [5]: 1.9 µM (active) | AC50 [8]: 3.05 µM (active)

COc1cc(CNCc2ccccc2C(F)(F)F)cc(OC)c1
IC50 [2]: 113 µM (active)

Oc1c(N=NC(S)=Nc2ccccc2F)c2ccccc2n1Cc1ccc(F)cc1
EC50 (Streptokinase A): 0.607 µM (inconclusive) | EC50 (Streptococcus): 17.8 µM (active) | EC50 [9]: 1.62 µM (active) | AC50 (HEK293): 4.02 µM (active) | EC50 [10]: 1.06 µM (active) | EC50 [14]: 2.84 µM (active)

O=C(N/N=C/c1ccc(Br)s1)c1ccccc1[N+](=O)[O-]
IC50 (cells): 49.2 µM (active) | CC50 [15]: > 40 µM (active) | AC50 (Cytochrome P450 3A4): 17.8 µM (inconclusive)
